Columns and labels:
[1] = tested on: cornea state of the rat exposed to mainstream smoke; test: Fluorescent staining of cornea after smoking treatment by exposure to mainstream smoke; assay type: in vivo, Sprague-Dawley (SD) rats; details: male SD rats, smoking treatment 12 days, instillation 5 μL per eye, once before and 3 times after smoking treatment, 0.1% tiopronin or 0.005% pirenoxine (Catalin)
Experimental: (§1) Male 6-8-week-old Sprague-Dawley (SD) rats were divided into 4 groups, each group with 4 rats, and they were used as a nonsmoking treatment group (NT), a smoking treatment group (Smoking), a smoking treatment+0.1% tiopronin instillation group (S+0.1% Tiopronin), and a smoking treatment +0.005% pirenoxine instillation group (S+Catalin).
(§2) Tiopronin (Thiola Tab. 100, manufactured by Mylan EPD) was prepared to provide an active ingredient amount of 0.1 w/v %, whereby an ophthalmic solution was produced. Catalin For Ophthalmic 0.005% (manufactured by Senju Pharmaceutical Co., Ltd.) was used for the 0.005% pirenoxine instillation group. Each eye was instilled with 5 μL per instillation. Instillation was performed for 12 days, once before the following smoking treatment and 3 times after the treatment.
The smoking treatment was performed as follows by reference to the method of Higuchi et al. (Free Radic. Biol. Med., 2011, Vol. 51, pages 2210-2216). Rats were placed in a smoking chamber and 300 mL of mainstream smoke was added into the chamber with a syringe. Male 6-8-week-old SD rats (maximum 12 rats) were placed in a smoking chamber (60 cm×40 cm×35 cm) produced for the experiment, and fresh air was supplied into the chamber with an air pump. Tobacco (Seven Star. (registered trade mark)) was set on a 50 mL syringe, and the mainstream smoke was sucked and blown into the chamber. This suction operation was repeated 6 times, a total 300 mL of the mainstream smoke was added into the chamber, and the rats were left standing for 30 min while delivering fresh air by the pump. A similar operation was repeated 5 times more (total 6 times), thereby exposing the rats to the mainstream smoke for 3 hr in total per day. […] The body weight of the rats that underwent the smoking treatment for 12 days and the nonsmoking group was measured, and cornea, lacrimal gland, crystalline lens were harvested. […] Of the rats that underwent the smoking treatment, the instillation group (S+Tiopronin, S+Catalin) and the noninstillation group (Smoking) were compared for the fluorescence score.

[2] = tested on: hardening of crystalline lens due to exposure to mainstream smoke in rat; test: Measurement of crystalline lens hardness after smoking treatment; assay type: in vivo, Sprague-Dawley (SD) rats; details: male SD rats, smoking treatment 12 days; instillation 5 μL per eye, once before and 3 times after smoking treatment; 0.1% tiopronin or 0.005% pirenoxine (Catalin); Dunnett method, p<0.01
Experimental: as §1
as §2, with “Instillation was performed for 12 days, once before the following smoking treatment and 3 times after the treatment.” left out
The smoking treatment was performed as follows by reference to the method of Higuchi et al. (Free Radic. Biol. Med., 2011, Vol. 51, pages 2210-2216). […] The body weight of the rats that underwent the smoking treatment for 12 days and the nonsmoking group was measured, and cornea, lacrimal gland, crystalline lens were harvested. […] Of the rats that underwent the smoking treatment, the instillation group (S+Tiopronin, S+Catalin) and the noninstillation group (Smoking) were compared for the fluorescence score.
The crystalline lens isolated from the eyeball in Example 1 was measured for the crystalline lens hardness by the following method. […]

Row | SMILES | fluorescent staining score of cornea (corneal state), instillation group vs noninstillation smoking group [1] | fluorescent staining score of cornea (corneal state), instillation group vs noninstillation smoking group ([1]; listed as Catalin) | hardness of the crystalline lens (weight divided by distance), vs smoking treatment group [2]
1 | O=C(O)c1cc(O)c2c3nc4ccccc4oc-3cc(=O)c2n1 [pirenoxine, 1-hydroxy-5-oxo-5H-pyrido[3,2-α]phenoxazine-3-carboxylic acid] | showed a tendency toward improvement | exacerbation of the corneal state due to instillation was not found | an increase in the hardness was significantly suppressed
2 | CC(S)C(=O)NCC(=O)O (centres unmarked) [tiopronin, N-(2-mercaptopropionyl)glycine] | exacerbation of the corneal state due to instillation was not found |  | an increase in the hardness was significantly suppressed
